This is an account of results in ChEMBL document CHEMBL1926606, “Cannabinomimetic lipid from a marine cyanobacterium” (J Nat Prod, 2011).

Experiment [1] deals with Cannabinoid receptor 1 (Homo sapiens, UniProt P21554). Put plainly: Displacement of [3H]CP55940 from human recombinant CB1 receptor expressed in HEK293 cells after 90 mins. Format: cell-based. For orientation: Loss of bound radioactivity is the signal in a displacement assay; it reports binding, not function.
Experiment [2] addresses Cannabinoid receptor 2 (Homo sapiens, UniProt P34972). Put plainly: Displacement of [3H]CP55940 from human recombinant CB2 receptor expressed in HEK293 cells after 90 mins. Format: cell-based.
For experiment [3], the system named is NCI-H460. Put plainly: Cytotoxicity against human H460 cells assessed as cell survival up to 20 ug/ml. Format: functional, cell-based.
Experiment [4] concerns NCI-H460. Put plainly: Cytotoxicity against human H460 cells assessed as cell survival at 50 ug/ml. Format: functional. To be noted: read-out: Activity.
The species named for experiment [5] is Homo sapiens. The experiment in a line: Selectivity ratio of IC50 for human recombinant CB1 receptor to IC50 for human recombinant CB2 receptor.
The subject of experiment [6] is NCI-H460. The experiment in a line: Cytotoxicity against human H460 cells assessed as cell survival at 5 ug/ml. Format: functional. The note with it: read-out: Activity.

Activity calls are given as the source filed them. No cut-off for these calls is given here.

Chain of Cannabinoid receptor 2 (P34972 whole entry): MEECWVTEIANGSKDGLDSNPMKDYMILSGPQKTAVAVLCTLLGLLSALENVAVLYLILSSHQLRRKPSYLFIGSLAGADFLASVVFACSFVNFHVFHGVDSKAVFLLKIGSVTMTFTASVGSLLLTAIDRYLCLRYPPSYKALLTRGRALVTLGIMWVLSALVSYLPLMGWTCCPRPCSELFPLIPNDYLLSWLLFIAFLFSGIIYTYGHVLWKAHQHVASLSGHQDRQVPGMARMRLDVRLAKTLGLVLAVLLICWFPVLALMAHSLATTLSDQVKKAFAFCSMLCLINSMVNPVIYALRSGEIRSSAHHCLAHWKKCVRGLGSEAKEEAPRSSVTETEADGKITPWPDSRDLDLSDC
Chain of Cannabinoid receptor 1 (P21554 whole entry): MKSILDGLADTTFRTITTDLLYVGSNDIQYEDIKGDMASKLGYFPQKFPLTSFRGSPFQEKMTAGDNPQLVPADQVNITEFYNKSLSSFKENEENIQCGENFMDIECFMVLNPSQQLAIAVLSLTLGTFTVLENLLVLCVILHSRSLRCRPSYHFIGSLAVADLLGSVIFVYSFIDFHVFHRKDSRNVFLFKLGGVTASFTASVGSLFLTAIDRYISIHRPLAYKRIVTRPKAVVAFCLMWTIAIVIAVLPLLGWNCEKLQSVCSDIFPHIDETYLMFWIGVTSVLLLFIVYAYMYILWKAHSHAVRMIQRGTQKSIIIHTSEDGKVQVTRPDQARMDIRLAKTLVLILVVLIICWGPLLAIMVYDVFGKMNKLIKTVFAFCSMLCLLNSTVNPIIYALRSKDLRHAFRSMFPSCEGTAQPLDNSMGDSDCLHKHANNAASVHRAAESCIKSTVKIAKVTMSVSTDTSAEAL

Usually IC50 stands for the concentration that gives 50% inhibition. Consider `C=C(CCCCCCCCCCCCC)CCCC(=O)O/C=C\COC(C)=O`, for which the IC50 in experiment [1] and in experiment [2] was greater than 10 µM throughout. Moreover, the result in experiment [3] was inactive.
The term Ki denotes the dissociation constant of the complex between target and ligand, obtained from inhibition or displacement. On to `CCCCC/C=C\C/C=C\C/C=C\C/C=C\CCCC(=O)N[C@@H](CO)C(=O)O`, for which the Ki in experiment [1] and in experiment [2] was greater than 10 µM throughout.
With `CCCCCCCCCCCCC/C=C/CCC(=O)N(C)[C@H](CO)COC` [SERINOLAMIDE A], the viability at 50 µg/mL in experiment [4] worked out at 0%. Moreover, the Ratio IC50 in experiment [5] was greater than 5. Besides, in experiment [1], the IC50 amounted to 2.3 µM and the Ki was determined as 1.3 µM. The IC50 in experiment [2] is greater than 10 µM. For the same compound, the viability at 5 µg/mL in experiment [6] stood at 60%.
